From ChEMBL document CHEMBL5346961, “Discovery and Evaluation of 3-Quinoxalin Urea Derivatives as Potent, Selective, and Orally Available ATM Inhibitors Combined with Chemotherapy for the Treatment of Cancer via Goal-Oriented Molecule Generation and Virtual Screening” (J Med Chem, 2023)
Activity calls are given as the source filed them. No cut-off for these calls is given here.

Tests used:
[1] = tested on: HCT-116; experiment: Induction of DNA damage in human HCT-116 cells assessed as decrease in gammaH2AX fluorescence intensity measured after 6 hrs in presence of irinotecan by fluorescence microscopic analysis; type: functional, cell-based; settings: dose 0.5-2 µM
[2] = tested on: HCT-116; experiment: Inhibition of colony formation in human HCT-116 cells at 0.01 uM preincubated for 1 hr followed by exposure to 2 Gy gamma irradiation and measured after 1 week by crystal violet staining based […] assay relative to control; type: functional; settings: HCT-116, light or radiation study, time 169 hrs
[3] = tested on: SW-620; experiment: Synergistic antiproliferative activity against human SW620 cells assessed as fold increase in irinotecan IC50 at 200 nM measured after 6 days by MTT assay; type: functional; settings: time 6 day
[4] = tested on: HCT-116; experiment: Induction of cell cycle arrest in human HCT-116 cells assessed as loss in accumulation of cells at G0/G1 phase at 1 to 4 uM measured after 48 hrs in presence of irinotecan by propidium iodide staining based flow cytometry analysis; type: functional; settings: dose 1-4 µM
[5] = tested on: HCT-116; experiment: Inhibition of colony formation in human HCT-116 cells assessed as assessed as fold change in IC50 in presence of ionizing radiation; type: functional
[6] = tested on: HCT-116; experiment: Induction of apoptosis in human HCT-116 cells assessed as necrotic cells at 4 uM measured after 2 days in presence of irinotecan by AnnexinV-FITC/PI staining based analysis (reference value: 0.64%); type: functional; settings: time 2 day
[7] = AUC (0 to t) in Balb/C mouse at 10 mg/kg,iv measured upto 48 hrs by LC-MS/MS analysis; type: ADME, organism-based; set-up: time < 48 hrs, dose 10 mg/kg, route iv; settings: in vivo
[8] = Clearance in Balb/C mouse at 10 mg/kg,iv measured upto 48 hrs by LC-MS/MS analysis; type: ADME, organism-based; settings: in vivo
[9] = tested on: HCT-116; experiment: Induction of apoptosis in human HCT-116 cells assessed as early apoptotic cells at 2 uM measured after 2 days in presence of irinotecan by AnnexinV-FITC/PI staining based analysis (reference value: 14.4%); type: functional; settings: time 2 day
[10] = tested on: SW-620; experiment: Antitumor activity against human SW620 cells xenografted in BALB/c nude mouse model assessed as tumor growth inhibition administered orally once daily for 3 days weekly after irinotecan post treatment for 21 days by caliper method; type: functional, cell-based; settings: dose 20-40 mg/kg, route po, time 21.0 day
[11] = Half life in Balb/C mouse at 10 mg/kg,po measured upto 48 hrs by LC-MS/MS analysis; type: ADME, organism-based; settings: in vivo
[12] = Oral bioavailability in Balb/C mouse at 10 mg/kg measured upto 48 hrs by LC-MS/MS analysis; type: ADME, organism-based; settings: in vivo
[13] = target: T1, Serine-protein kinase ATM (Homo sapiens, UniProt Q13315); experiment: Inhibition of ATM (unknown origin) preincubated with compound for 30 mins followed by substrate addition and measured after 2 hrs by HTRF method
T1 sequence (Q13315 whole entry): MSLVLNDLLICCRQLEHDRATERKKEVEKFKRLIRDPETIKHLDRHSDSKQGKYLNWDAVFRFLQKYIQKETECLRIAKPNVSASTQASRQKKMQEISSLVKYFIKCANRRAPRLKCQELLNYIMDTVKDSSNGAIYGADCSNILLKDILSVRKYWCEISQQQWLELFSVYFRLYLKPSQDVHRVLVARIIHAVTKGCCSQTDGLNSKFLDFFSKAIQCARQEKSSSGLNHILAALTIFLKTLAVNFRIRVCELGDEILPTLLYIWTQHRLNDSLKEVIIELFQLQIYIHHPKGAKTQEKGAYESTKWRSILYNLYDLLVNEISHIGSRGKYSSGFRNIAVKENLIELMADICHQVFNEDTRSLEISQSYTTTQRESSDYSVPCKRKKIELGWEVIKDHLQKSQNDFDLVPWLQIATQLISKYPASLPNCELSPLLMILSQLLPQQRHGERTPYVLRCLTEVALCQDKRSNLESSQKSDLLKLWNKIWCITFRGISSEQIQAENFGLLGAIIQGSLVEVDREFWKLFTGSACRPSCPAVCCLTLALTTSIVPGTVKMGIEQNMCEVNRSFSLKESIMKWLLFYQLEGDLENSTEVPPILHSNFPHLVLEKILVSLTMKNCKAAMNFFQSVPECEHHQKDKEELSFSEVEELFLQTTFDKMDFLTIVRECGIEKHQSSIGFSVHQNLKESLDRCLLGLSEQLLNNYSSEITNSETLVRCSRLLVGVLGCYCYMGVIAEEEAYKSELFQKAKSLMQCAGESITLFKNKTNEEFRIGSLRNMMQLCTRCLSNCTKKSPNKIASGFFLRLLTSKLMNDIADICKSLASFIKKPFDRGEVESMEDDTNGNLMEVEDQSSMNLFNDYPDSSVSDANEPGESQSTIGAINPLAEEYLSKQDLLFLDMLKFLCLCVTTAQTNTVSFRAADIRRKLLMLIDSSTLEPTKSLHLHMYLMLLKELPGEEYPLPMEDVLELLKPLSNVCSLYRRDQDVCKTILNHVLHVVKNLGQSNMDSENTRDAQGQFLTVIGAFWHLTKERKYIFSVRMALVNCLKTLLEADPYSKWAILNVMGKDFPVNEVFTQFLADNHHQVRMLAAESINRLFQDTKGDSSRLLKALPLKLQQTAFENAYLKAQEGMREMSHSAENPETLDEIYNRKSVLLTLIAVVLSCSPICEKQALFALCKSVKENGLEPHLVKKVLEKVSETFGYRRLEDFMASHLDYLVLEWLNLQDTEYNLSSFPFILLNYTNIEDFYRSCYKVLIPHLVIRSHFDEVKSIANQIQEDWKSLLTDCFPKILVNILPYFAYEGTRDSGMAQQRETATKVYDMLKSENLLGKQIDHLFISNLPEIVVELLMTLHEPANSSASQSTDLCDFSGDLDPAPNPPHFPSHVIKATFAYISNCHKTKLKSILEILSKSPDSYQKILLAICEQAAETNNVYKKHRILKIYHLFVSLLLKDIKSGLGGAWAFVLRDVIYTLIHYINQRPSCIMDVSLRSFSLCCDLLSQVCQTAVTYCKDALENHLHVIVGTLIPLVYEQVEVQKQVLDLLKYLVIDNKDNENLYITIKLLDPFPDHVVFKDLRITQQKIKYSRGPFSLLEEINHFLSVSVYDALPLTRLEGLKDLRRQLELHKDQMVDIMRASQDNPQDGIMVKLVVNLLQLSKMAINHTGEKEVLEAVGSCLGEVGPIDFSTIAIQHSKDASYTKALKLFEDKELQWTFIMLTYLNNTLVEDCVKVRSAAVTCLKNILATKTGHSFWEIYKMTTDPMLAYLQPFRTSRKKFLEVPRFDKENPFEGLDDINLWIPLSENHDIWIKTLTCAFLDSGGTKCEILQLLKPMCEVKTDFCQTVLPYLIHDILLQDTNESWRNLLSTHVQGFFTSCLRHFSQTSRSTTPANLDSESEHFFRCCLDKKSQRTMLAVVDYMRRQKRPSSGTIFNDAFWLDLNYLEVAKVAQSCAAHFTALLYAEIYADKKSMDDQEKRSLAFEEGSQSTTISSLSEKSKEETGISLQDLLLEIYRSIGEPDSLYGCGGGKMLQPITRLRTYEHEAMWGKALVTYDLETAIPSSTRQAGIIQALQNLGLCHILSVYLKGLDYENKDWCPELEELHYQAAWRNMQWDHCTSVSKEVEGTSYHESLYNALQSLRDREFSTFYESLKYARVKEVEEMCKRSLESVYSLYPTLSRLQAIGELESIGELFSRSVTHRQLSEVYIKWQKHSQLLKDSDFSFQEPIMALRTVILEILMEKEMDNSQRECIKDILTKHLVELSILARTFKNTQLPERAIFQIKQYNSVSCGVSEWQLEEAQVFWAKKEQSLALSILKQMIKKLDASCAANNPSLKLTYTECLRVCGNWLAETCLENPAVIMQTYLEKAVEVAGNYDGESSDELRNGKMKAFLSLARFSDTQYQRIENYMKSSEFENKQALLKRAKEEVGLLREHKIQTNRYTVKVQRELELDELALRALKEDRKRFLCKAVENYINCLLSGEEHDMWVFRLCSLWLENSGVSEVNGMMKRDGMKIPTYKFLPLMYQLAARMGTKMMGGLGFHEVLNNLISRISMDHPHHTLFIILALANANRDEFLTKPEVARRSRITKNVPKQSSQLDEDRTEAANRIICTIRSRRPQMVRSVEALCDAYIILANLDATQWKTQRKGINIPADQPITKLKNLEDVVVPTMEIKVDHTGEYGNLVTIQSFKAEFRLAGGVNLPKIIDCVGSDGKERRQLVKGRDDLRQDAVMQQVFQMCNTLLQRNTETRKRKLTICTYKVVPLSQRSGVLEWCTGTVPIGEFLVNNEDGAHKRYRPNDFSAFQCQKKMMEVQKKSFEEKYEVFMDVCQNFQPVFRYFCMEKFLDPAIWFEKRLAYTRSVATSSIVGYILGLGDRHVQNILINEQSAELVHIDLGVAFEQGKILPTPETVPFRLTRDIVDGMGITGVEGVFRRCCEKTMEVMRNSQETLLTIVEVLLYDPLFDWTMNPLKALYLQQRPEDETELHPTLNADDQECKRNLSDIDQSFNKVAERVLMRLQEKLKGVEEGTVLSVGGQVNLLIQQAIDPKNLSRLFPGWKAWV

[14] = tested on: HCT-116; experiment: Antiproliferative activity against human HCT-116 cells assessed as reduction in cell viability incubated for 6 days by MTT assay; type: functional, cell-based; settings: HCT-116, 144 h
[15] = tested on: HCT-116; experiment: Induction of apoptosis in human HCT-116 cells assessed as viable cells at 4 uM measured after 2 days in presence of irinotecan by AnnexinV-FITC/PI staining based analysis (reference value: 72.8%); type: functional; settings: HCT-116, 48 h, time 2 day, read-out: Activity
[16] = tested on: MCF7; experiment: Synergistic antiproliferative activity against human MCF7 cells assessed as fold increase in irinotecan IC50 at 200 nM measured after 6 days by MTT assay; type: functional; settings: time 6 day
[17] = tested on: HCT-116; experiment: Inhibition of colony formation in human HCT-116 cells preincubated for 1 hr followed by exposure to 2 Gy gamma irradiation and measured after 1 week by crystal violet staining based […] assay; type: functional, cell-based; settings: HCT-116, light or radiation study
[18] = Toxicity in BALB/c nude mouse assessed as reduction in body weight at 20 to 40 mg/kg, po administered once daily for 3 days weekly after irinotecan post treatment for 21 days in presence of irinotecan relative to control; type: organism-based; set-up: scale not given: the % may be the effect or the level left; settings: in vivo, 504 h, dose 20-40 mg/kg, time 21 day
[19] = Tmax in Balb/C mouse at 10 mg/kg,po measured upto 48 hrs by LC-MS/MS analysis; type: ADME, organism-based; settings: in vivo
[20] = tested on: HCT-116; experiment: Induction of apoptosis in human HCT-116 cells assessed as early apoptotic cells at 4 uM measured after 2 days in presence of irinotecan by AnnexinV-FITC/PI staining based analysis (reference value: 14.4%); type: functional; settings: time 2 day
[21] = tested on: MCF7; experiment: Synergistic antiproliferative activity against human MCF7 cells assessed as combination index at […] measured after 6 days in presence etoposide by MTT assay; type: functional; settings: dose lower 100 µM; time 6 day
[22] = tested on: MCF7; experiment: Synergistic antiproliferative activity against human MCF7 cells assessed as fold increase in etoposide IC50 at 200 nM measured after 6 days by MTT assay; type: functional; settings: time 6 day
[23] = tested on: HCT-116; experiment: Induction of cell cycle arrest in human HCT-116 cells at 1 to 4 uM measured after 48 hrs by propidium iodide staining based flow cytometry analysis; type: functional; settings: dose 1-4 µM
[24] = tested on: HCT-116; experiment: Induction of apoptosis in human HCT-116 cells assessed as necrotic cells at 1 uM measured after 2 days by AnnexinV-FITC/PI staining based analysis (reference value: 0.64%); type: functional; settings: time 2 day
[25] = Clearance in Balb/C mouse at 10 mg/kg,po measured upto 48 hrs by LC-MS/MS analysis; type: ADME, organism-based; settings: in vivo
[26] = tested on: HCT-116; experiment: Induction of apoptosis in human HCT-116 cells assessed as necrotic cells at 1 uM measured after 2 days in presence of irinotecan by AnnexinV-FITC/PI staining based analysis (reference value: 0.64%); type: functional; settings: time 2 day
[27] = tested on: SW-620; experiment: Antiproliferative activity against human SW620 cells assessed as reduction in cell viability incubated for 6 days by MTT assay; type: functional, cell-based; settings: SW-620, 144 h
[28] = target: T1, Serine-protein kinase ATM; experiment: Inhibition of ATM (unknown origin) at 1 uM in presence of [gamma33P-ATP] by scintillation counting method relative to control
[29] = tested on: HCT-116; experiment: Induction of apoptosis in human HCT-116 cells assessed as late apoptotic cells at 4 uM measured after 2 days in presence of irinotecan by AnnexinV-FITC/PI staining based analysis (reference value: 12.2%); type: functional; settings: time 2 day
[30] = tested on: HCT-116; experiment: Induction of apoptosis in human HCT-116 cells assessed as early apoptotic cells at 1 uM measured after 2 days in presence of irinotecan by AnnexinV-FITC/PI staining based analysis (reference value: 14.4%); type: functional; settings: time 2 day
[31] = tested on: HCT-116; experiment: Induction of apoptosis in human HCT-116 cells assessed as necrotic cells at 4 uM measured after 2 days by AnnexinV-FITC/PI staining based analysis (reference value: 0.64%); type: functional; settings: time 2 day
[32] = Volume of distribution at steady state in Balb/C mouse at 10 mg/kg,po measured upto 48 hrs by LC-MS/MS analysis; type: ADME, organism-based; settings: in vivo
[33] = tested on: SW-620; experiment: Synergistic antiproliferative activity against human SW620 cells assessed as fold increase in irinotecan IC50 at 100 nM measured after 6 days by MTT assay; type: functional; settings: time 6 day
[34] = tested on: MCF7; experiment: Antiproliferative activity against human MCF7 cells assessed as reduction in cell viability incubated for 6 days by MTT assay; type: functional, cell-based; settings: MCF7, 144 h
[35] = tested on: SW-620; experiment: Synergistic inhibition of colony formation in human SW620 cells assessed as fold increase in irinotecan IC50 at 200 nM preincubated for 1 hr followed by irinotecan addition and measured after 1 week by crystal violet staining based […] assay; type: functional; settings: time 169 hrs

CC(C)NC(=O)N(C)c1cnc2ccc(-c3ccc(OCCCN4CCCCC4)nc3)cc2n1
Activity [1]: Active
inhibition at 0.01 µM [2]: 94.1%
fold change (FC) [3]: 4.5
Activity [4]: Active
fold change (FC) [5]: 750
Activity [6]: 1.73%
AUCt [7]: 13027.01 ng·h/mL
clearance [8]: 13 mL/min/kg
Activity [9]: 51.3%
Activity [10]: Dose-Dependent Effect
t1/2 [11]: 3.37 h
bioavailability [12]: 107%
IC50 [13]: 1.15 nM
IC50 [14]: > 9000 nM
viability at 4 µM [15]: 7.37%
fold change (FC) [16]: 15
IC50 [17]: 1.69 nM
Activity [18]: < 12%
Tmax [19]: 0.33 h
Activity [20]: 55.7%
CI [21]: <1
fold change (FC) [22]: 5.2
Activity [23]: inactive
Activity [24]: 1.01%
CL/F [25]: 12.2 mL/min/kg
Activity [26]: 2.39%
IC50 [27]: > 9000 nM
inhibition [28]: < 50%
Activity [29]: 35.2%
Activity [30]: 49.9%
Activity [31]: 0.6%
Vdss [32]: 3.52 L/kg
fold change (FC) [33]: 2.8
IC50 [34]: > 9000 nM
fold change (FC) [35]: 11.5
